Experimental data from patent US8637521B2, “Substituted piperazin-2,5-diones and their use as multifunctional bioactive compounds” (priority 2006, dated 2014).
“And” between values parts separate entries of the source, which are not always exact repeats. Identical values can stand only once.

Tests used:
Anti-OVA antibody titers = assay: Adjuvant activity, anti-OVA antibody titers by ELISA (Example 8); assay type: in vivo, Balb/c mice; settings: for Pool: pooled sera titer
Procedure: Adjuvant activity was tested on 11 groups of Balb/c mice (obtained from Stolbovaya Breeding Station). Each group consisted of 7 animals. Three immunizations were performed as follows:
• Group 1—ovalbumin 25 micrograms per animal (Mouse Nos. 1 to 7) • Group 2—ovalbumin 25 micrograms per animal+CFA (Complete Freund's adjuvant) (Mouse Nos. 8 to 14) • Group 3—ovalbumin 25 micrograms per animal+adjuvant of compound 33a 100 micrograms per animal (Mouse Nos. 15 to 21) • Group 4—ovalbumin 25 micrograms per animal+adjuvant of compound 33a 10 micrograms per animal (Mouse Nos. […]) • Group 5—ovalbumin 25 micrograms per animal+adjuvant of compound 33a 1 microgram per animal (Mouse Nos. […]) • Group 6—ovalbumin 25 micrograms per animal+adjuvant of compound 33b 100 micrograms per animal (No. 36 to 42) • Group 7—ovalbumin 25 micrograms per animal+adjuvant of compound 33b 10 micrograms per animal (Mouse Nos. 43 to 49) • Group 8—ovalbumin 25 micrograms per animal+adjuvant of compound 33b 1 microgram per animal (Mouse Nos. 50 to 56) • Group 9—ovalbumin 25 micrograms per animal+adjuvant of compound 17 100 micrograms per animal (Mouse Nos. 57 to 63) • Group 10—ovalbumin 25 micrograms per animal+adjuvant of compound 1710 micrograms per animal (Mouse Nos. 64 to 70) • Group 11—ovalbumin 25 micrograms per animal+adjuvant of compound 171 microgram per animal (Mouse Nos. 71 to 77) Second Immunization:
The same set 14 days after first immunization by injection of 12.5 micrograms of ovalbumin/mouse to mouse nos. 1 to 77.
The same set 28 days after first immunization by injection of 12.5 micrograms of ovalbumin/mouse to mouse nos. 1 to 77.
On day 35 after first immunization, blood samples from each mouse were collected.
OVA (10 micrograms/ml) solution in 0.05 M sodium carbonate buffer (pH 9.5) was added to plate wells, 0.1 ml per well and incubated at 4° C. for 16 hours. The OVA solution was then removed and the plate was washed 4 times with PBS containing 0.05% Tween-20. Such washing was performed after each incubation stage. Serial twofold dilutions of sera (starting from 1:100 or 1:1000) were added to the wells, 0.1 ml per well and incubated at 37° C. for 1 hour followed by incubation (1 hour, 37° C.) with HRP-conjugated goat anti-mouse IgG antibodies (0.1 ml, 1 mg/ml in PBS) and then with a 0.1 mL substrate solution −0.05% H2O2 and 0.05% o-phenylene diamine in 0.05M sodium citrate buffer with a pH of 4.5. The reaction was stopped by adding 100 μl of 12.5% H2SO4. Absorbance was measured at a wavelength of 492 nm using a Multiscan Plus MKII (Flow Laboratories, Great Britain). Significant anti-protein antibody titer (for individual sera) was assessed as the serum dilution produced an absorbance value of more than 0.1 ODU and the minimum exceeds three times the control level. The antibody titer was presented and −log of dilution (FIGS. 2 and 3). The stimulation index for pooled sera was calculated by dividing the test pooled sera dilution producing OD=1 by the dilution of pooled sera from mice immunized without the adjuvant, producing OD=1. The results of the adjuvant activities of cyclo-L-Ala-L-Glu-(L-Trp-OH) (Compound 17), cyclo-L-Lys(N-acetyl-Glycosamine-N-acetyl-muramil)-L-Glu-(L-Trp-OH) (Compound 33a) and cyclo-D-Lys(N-acetyl-Glycosamine-N-acetyl-muramil)-D-Glu-(L-Trp-OH) (Compound 33b) are shown in Table 7 and the adjuvant activities of cyclo [L-Lys(Palmitoyil)-L-Glu(D-Trp-OH)] (Compound 26a) and cyclo [D-Lys(Palmitoyil)-D-Glu(D-Trp-OH)] (Compound 26b) are shown in Table 8 as well as in FIG. 4 which includes the results of the adjuvant activities of cyclo-L-Lys-L-Glu-(L-Trp-OH) (compound 19). It is noted that the peptides of compounds 26a and 26b are soluble in 0.1% NH4OH at a concentration of 1 mg per 1 to 2 ml.

antibodies to ovalbumin [1] = assay: Adjuvant activity with ovalbumin immunization (Example 7); assay type: in vivo, mice; settings: Table 6
Procedure: Adjuvant activity was tested on 6 groups of mice. Each group consisted of 5 animals. Three immunizations were performed as follows:
• 1. Mouse Nos. 1 to 5—Complete Freund's adjuvant (CFA=control) • 2. Mouse Nos. 6 to 10—ovalbumin (OVA egg) 25 micrograms per animal+adjuvant 100 micrograms per animal • 3. Mouse Nos. 11 to 15—ovalbumin 25 micrograms per animal+CFA • 4. Mouse Nos. 16 to 20—ovalbumin 25 micrograms per animal • 5. Mouse Nos. 21 to 25—ovalbumin 25 micrograms per animal+adjuvant 1 microgram per animal • 6. Mouse Nos. 26 to 30—ovalbumin 25 micrograms per animal+adjuvant 10 micrograms per animal Second Immunization:
The same set 21 days after first immunization by injection of 12.5 micrograms of ovalbumin/mouse to mouse nos. 6 to 30.
The same set 35 days after first immunization by injection of 12.5 microgram of ovalbumin/mouse to mouse nos. 6 to 30.
On day 42, blood samples from each mouse were collected. The stimulation index of each group was compared. The stimulation index was calculated by dividing the test pooled sera dilution yielding OD=1 by the dilution of pooled sera from mice immunized without the adjuvant, yielding OD=1.

[2] = Solubility of peptides in 0.1% NH4OH; assay type: physicochemical; settings: for solubility when titrated with 0.1% AcOH: titrated with 0.1% AcOH to pH=8.4 to 8.5
[3] = tested on: CFU-S population in the bone marrow; assay: Spleen colony formation (CFU-S) by bone marrow cells of peptide-treated intact donor mice; assay type: in vivo, (CBA×C57 B1) F1 mice; settings: Table 2, donor treated i/p
Procedure: The effect of tested substances on intact bone marrow was studied in vivo. […] Two days after administration of preparation, the mice were killed. Bone marrow suspension was prepared and injected intravenously to lethally irradiated mice. The colony forming activity was evaluated at day 8. Test animals were (CBA×C57 B1) F1 mice (30 mice per trial, average from 3 tests).

antibodies to ovalbumin [4] = assay: Adjuvant activity with ovalbumin immunization (Example 6); assay type: in vivo, mice (C57B16); settings: for Stimulation index: Table 5, ovalbumin alone = 1.00
Procedure: Adjuvant activity was tested on 5 groups of mice (C57B16). Each group consisted of 5 animals. Three immunizations were performed:
• 1. Group with Complete Freund's Adjuvant (CFA) • 2. Group with ovalbumin (OVA egg) (25 micrograms/mouse) • 3. Group with CFA+ovalbumin (25 micrograms/mouse) • 4. Group with ovalbumin (25 micrograms/mouse)+peptide 1 microgram/mouse • 5. Group with ovalbumin (25 micrograms/mouse)+peptide 10 micrograms/mouse Second Immunization:
The same set 21 days after first immunization by injection of 12.5 micrograms of ovalbumin/mouse to groups 2-5.
The same set 35 days after first immunization by injection of 12.5 micrograms of ovalbumin/mouse to groups 2-5.
On day 42, the total blood from each mouse was collected. The blood was pooled from each group of mice. The stimulation index of each group was compared. The stimulation index was calculated as a ratio between optical density (OD=1) of diluted pools of groups 3-5 to the optical density (OD=1) of diluted pools of group 2 (control with no adjuvant).

[5] = tested on: hemopoietic precursor cells; assay: Exogenous spleen colonies from bone marrow irradiated ex vivo with 1 Gy; assay type: in vivo
Procedure: In this study, the method of exogenous spleen colonies was applied. A suspension of intact bone marrow cells was irradiated ex vivo in the dose of 1 Gy. Different doses of Neogen or cyclic peptides were injected IP, 1M, subcutaneous or introduced per os to lethally irradiated recipients within an hour after the injection of irradiated bone marrow. Colonies were counted on day 8. All data in each group was the mean of three tests.

[6] = Table 8, 100 μg per animal, no adjuvant = 1
[7] = Table 8, OVA + adjuvant 1 μg per animal, one value per mouse
[8] = Table 8, OVA + adjuvant 10 μg per animal, one value per mouse
[9] = Table 8, OVA + adjuvant 100 μg per animal, one value per mouse
[10] = Table 8, 100 μg per animal, no adjuvant 3.9

For `C[C@@H]1NC(=O)[C@H](CCC(=O)N[C@@H](Cc2c[nH]c3ccccc23)C(=O)O)NC1=O` [Compound 17, cyclo-L-Ala-L-Glu-(L-Trp-OH)], the “adjuvant activity (FIG. 4), doses at which active” value (shortened to “adjuvant activity (FIG. 4), doses”) (Anti-OVA antibody titers) was “active at 1, 10 and 100 μg/kg”, the “Anti-protein antibody titer (pooled sera)” value (Anti-OVA antibody titers; Table 7, 1 μg per animal) was 4.8 and the Stimulation index (Anti-OVA antibody titers; Table 7, 1 μg per animal) was 2.6. The “Anti-protein antibody titer (pooled sera)” value (Anti-OVA antibody titers; Table 7, 10 μg per animal) was 4.5, the Stimulation index (Anti-OVA antibody titers; Table 7, 10 μg per animal) was 1.9 and the “Anti-protein antibody titer (pooled sera)” value (Anti-OVA antibody titers; Table 7, 100 μg per animal, no adjuvant 4.5) was 4.8. For the same compound, the Stimulation index (Anti-OVA antibody titers; Table 7, 100 μg per animal, no adjuvant = 1) was 2.3, the “Anti-protein antibody titer (for individual sera)” value (Anti-OVA antibody titers; Table 7, OVA + adjuvant 1 μg per animal, −log of dilution) was 5.1 (3×) and 4.2 and 4.5 (2×) and 5.4 and the “Anti-protein antibody titer (for individual sera)” value (Anti-OVA antibody titers; Table 7, OVA + adjuvant 10 μg per animal, −log of dilution) was 4.8 and 4.2 and 4.1 and 4.5 (2×) and 5.4 and 3.9. For the same compound, the “Anti-protein antibody titer (for individual sera)” value (Anti-OVA antibody titers; Table 7, OVA + adjuvant 100 μg per animal, titer as −log of dilution, one value per mouse) was 4.5 and 4.2 (3×) and 5.1 (2×) and 4.8, the Stimulation index (antibodies to ovalbumin [1]; adjuvant 1 microgram per animal) was 1.18 and the Stimulation index (antibodies to ovalbumin [1]; adjuvant 10 micrograms per animal) was 1.74. The Stimulation index (antibodies to ovalbumin [1]; adjuvant 100 micrograms per animal, ovalbumin alone = 1.0) was 1.14.

With `CCCCCCCCCCCCCCCC(=O)NCCCC[C@@H]1NC(=O)[C@H](CCC(=O)N[C@H](Cc2c[nH]c3ccccc23)C(=O)O)NC1=O` [Compound 26a, cyclo [L-Lys(Palmitoyil)-L-Glu(D-Trp-OH)]] the “soluble in 0.1% NH4OH at a concentration of” value [2] was 1 mg per 1 to 2 ml, the “solubility when titrated with 0.1% AcOH” value [2] was “remain soluble” and the “adjuvant activity (FIG. 4), doses” value (Anti-OVA antibody titers) was “active at 10 μg/kg”. It also gave a Stimulation index (Anti-OVA antibody titers; Table 8, 1 μg per animal) of 2.0, a Stimulation index (Anti-OVA antibody titers; Table 8, 10 μg per animal) of 6.5 and a Stimulation index (Anti-OVA antibody titers; [6]) of 3.3. For the same compound, the Anti-protein antibody titer (Anti-OVA antibody titers; [7]) was 4.8 and 5.1 (4×) and 4.5 and 4.4, the Anti-protein antibody titer (Anti-OVA antibody titers; [8]) was 5.5 (4×) and 5.8 and 5.7 (2×) and the Anti-protein antibody titer (Anti-OVA antibody titers; [9]) was 4.8 (4×) and 4.4 and 5.1 and 5.4. The Pool (Anti-OVA antibody titers; Table 8, 1 μg per animal) was 4.4, the Pool (Anti-OVA antibody titers; Table 8, 10 μg per animal) was 5.7 and the Pool (Anti-OVA antibody titers; [10]) was 5.1.

With `CCCCCCCCCCCCCCCC(=O)NCCCC[C@H]1NC(=O)[C@@H](CCC(=O)N[C@H](Cc2c[nH]c3ccccc23)C(=O)O)NC1=O` [Compound 26b, cyclo [D-Lys(Palmitoyil)-D-Glu(D-Trp-OH)]] the “soluble in 0.1% NH4OH at a concentration of” value [2] was 1 mg per 1 to 2 ml, the “solubility when titrated with 0.1% AcOH” value [2] was “remain soluble” and the “adjuvant activity (FIG. 4), doses” value (Anti-OVA antibody titers) was “not an active compound”. For the same compound, the Stimulation index (Anti-OVA antibody titers; Table 8, 1 μg per animal) was 4.9, the Stimulation index (Anti-OVA antibody titers; Table 8, 10 μg per animal) was 2.7 and the Stimulation index (Anti-OVA antibody titers; [6]) was 2.6. The Anti-protein antibody titer (Anti-OVA antibody titers; [7]) was 5.4 (2×) and 4.5 and 3.8 and 3.5 and 5.1, the Anti-protein antibody titer (Anti-OVA antibody titers; [8]) was 4.7 (3×) and 5.1 and 4.8 (2×) and the Anti-protein antibody titer (Anti-OVA antibody titers; [9]) was 4.5 (2×) and 4.8 (3×) and 4.2. The Pool (Anti-OVA antibody titers; Table 8, 1 μg per animal) was 5.1, the Pool (Anti-OVA antibody titers; Table 8, 10 μg per animal) was 4.8 and the Pool (Anti-OVA antibody titers; [10]) was 4.8.

In the case of `C[C@@H]1NC(=O)[C@H](CCC(=O)N[C@@H](Cc2c[nH]c3ccccc23)C(=O)[O-])NC1=O.[Na+]` [cyclo-LAla-LGlu-(LTrp-ONa), cyclo-L-Ala-L-Glu-(L-Trp-ONa)], the “% suppression” value [3] was 0%, the “Colony count CFU-8 - S per 10^5 cells M ± M” value ([3]; control 11.2 ± 0.4, colonies day 8) was 11.7 ± 0.8 per 10^5 cells and the Stimulation index (antibodies to ovalbumin [4]; ovalbumin + peptide 1 μg/mouse (group 4)) was 1.18. The Stimulation index (antibodies to ovalbumin [4]; ovalbumin + peptide 10 μg/mouse (group 5)) was 1.74, the “increase of titers of antibodies to ovalbumin” value (antibodies to ovalbumin [4]; matches stimulation index 1.74 at 10 μg/mouse) was 74% and the Colony count ([5]; 10 μg/kg IP, unirradiated 11.9 ± 0.4, 1 Gy alone 6.2 ± 0.6) was 8.0 ± 0.4. For the same compound, the “% stimulation” value ([5]; 10 μg/kg IP, unirradiated = 100, 1 Gy alone = 0) was 67.2%, the “% stimulation” value ([5]; 100 μg/kg IP) was 80.7% and the Colony count ([5]; 100 μg/kg IP) was 9.6 ± 0.7. The “% stimulation” value ([5]; 100 μg/kg per/os) was 98.3% and the Colony count ([5]; 100 μg/kg per/os) was 11.7 ± 0.6.
